# Measurements as given in US20240423961A1, “1H-1,2,3-TRIAZOLE-4-CARBOXYLIC ACIDS FOR TREATMENT OF HYPEROXALURIA AND KIDNEY STONES” (CANTERO THERAPEUTICS, INC., priority 2021, published 2024).
# Experiment: Phase 1 SAD/MAD study: safety and tolerability (adverse events, vital signs, ECG, laboratory tests)
# Format: in vivo, human
# Method: A Phase 1 clinical study is performed to assess the safety and dosing of Compound 1a. This Phase 1 study consists of two parts. In Part A, healthy adults randomized 3:1 (active:placebo) receive a single dose of orally administered Compound 1a or matching placebo in six (6) ascending dose groups. In Part B, healthy adults randomized 3:1 (active:placebo) received multiple doses of orally administered Compound 1a or matching placebo in six (6) ascending dose groups. Safety and tolerability were assessed by the incidence of adverse events, vital signs, electrocardiograms, and clinical laboratory tests. Pharmacokinetics and pharmacodynamics (changes in plasma and urine glycolate) were measured using validated bioanalytical assays.
# Study Design: The study was approved by the Advarra Institutional Review Board (Columbia, MD). All participants provided written informed consent. The trial was conducted at a single center (Celerion, Tempe, Arizona) according to the Good Clinical Practice guidelines of the International Conference on Harmonization and the World Health Organization Declaration of Helsinki. The study was a randomized, double-blind, placebo-controlled, single and multiple ascending dose study. The primary objective of the study was to evaluate the safety and tolerability of single and multiple doses of Compound 1a administered to healthy adult volunteers. The secondary objectives were to characterize the pharmacokinetics (PK) of Compound 1a and to describe the pharmacodynamic (PD) properties in healthy adult volunteers. The study also evaluated the effect of food on the PK of Compound 1a.
# Subject disposition: Six cohorts of 6 to 8 subjects each (N=up to 48) were administered single doses of 40, 120, 360, 1,000, 2,000, and 3,000 mg of Compound 1a in Part A under fasting conditions. Following a 2-week washout, subjects in the 1,000 mg cohort were administered a second 1,000 mg single dose following a high-fat breakfast. Six cohorts of 8 healthy subjects each were administered multiple doses of 75 mg […] (qd), 125 mg every 12 hours (q12 h), 500 mg q12 h, 500 mg qd, 750 mg qd, and 1,000 mg qd for 7 days in the MAD Part B (FIG. 1).
# [1] = Part A single ascending dose, 40 mg (n = 7)
# [2] = Part A single ascending dose, 120 mg (n = 8)
# [3] = Part A single ascending dose, 360 mg (n = 6)
# [4] = Part A single ascending dose, 1,000 mg (n = 8)
# [5] = Part A single ascending dose, 2,000 mg (n = 8)
# [6] = Part B multiple ascending dose, 125 mg q12 h (n = 8)
# [7] = Part B multiple ascending dose, 500 mg q12 h (n = 8)
# [8] = Part B multiple ascending dose, 500 mg qd (n = 8)
smiles,measurement,setting,value
"O.O=C([O-])c1nn[nH]c1Oc1ccc(-c2ccc(C3CC(F)(F)C3)cc2)cc1.[Na+] [Compound 1a, sodium 5-((4′-(3,3-difluorocyclobutyl)-[1,1′-biphenyl]-4-yl)oxy)-1H-1,2,3-triazole-4-carboxylate monohydrate]",AEs leading to study discontinuation,Part A and Part B,no AEs leading to study discontinuation
same,dose-limiting toxicities,Part A and Part B,No dose-limiting toxicities were observed
same,intensity of AEs,Part A and Part B,all were mild to moderate in intensity
same,post dose electrocardiogram findings,Part A and Part B,nor were there clinically important post dose electrocardiogram findings
same,safety laboratory tests,Part A and Part B,no clinically significant changes or trends observed
same,serious or severe AEs,Part A and Part B,No serious or severe AEs were reported
same,AEs,[1],10
same,SAEs,[1],0
same,AEs,[2],1
same,SAEs,[2],0
same,AEs,[3],0
same,SAEs,[3],0
same,AEs,[4],4
same,SAEs,[4],0
same,AEs,[5],3
same,SAEs,[5],0
same,AEs,[6],6
same,SAEs,[6],0
same,AEs,[7],12
same,SAEs,[7],0
same,AEs,[8],1
same,SAEs,[8],0
same,tolerability,"single doses up to 3,000 mg and multiple doses up to 2,000 mg per day (1,000 mg qd)",well tolerated
